Source: the NIST ThermoML archive (doi:10.1021/je0497496)
Where “and” joins values, the source holds several entries; their conditions need not be identical. Identical values can stand only once. ± gives the expanded uncertainty stated by the source.

Conditions: for mass density: buoyancy; for vapor or sublimation pressure: Closed cell (Static) method

O=C=O [carbon dioxide]
mass density (233.06 K, 500.05 kPa, Fluid (supercritical or subcritical phases)): 12.0703 ± 0.033 kg/m3
mass density (233.06 K, 799.98 kPa, Fluid (supercritical or subcritical phases)): 20.1488 ± 0.034 kg/m3
mass density (233.07 K, 105.91 kPa, Fluid (supercritical or subcritical phases)): 2.43371 ± 0.031 kg/m3 and 2.42701 ± 0.031 kg/m3
mass density (233.07 K, 300.07 kPa, Fluid (supercritical or subcritical phases)): 7.05798 ± 0.032 kg/m3
vapor or sublimation pressure (233.07 K, Liquid): 1000.7 ± 2.4 kPa and 1000.8 ± 2.4 kPa
mass density (233.07 K, Liquid): 1116.54 ± 0.35 kg/m3 and 1116.44 ± 0.35 kg/m3
mass density (243 K, 1000.7 kPa, Fluid (supercritical or subcritical phases)): 24.4253 ± 0.035 kg/m3
mass density (243.01 K, 300.03 kPa, Fluid (supercritical or subcritical phases)): 6.73594 ± 0.031 kg/m3
mass density (243.01 K, 500.04 kPa, Fluid (supercritical or subcritical phases)): 11.476 ± 0.032 kg/m3
mass density (243.01 K, 800 kPa, Fluid (supercritical or subcritical phases)): 19.0248 ± 0.033 kg/m3
mass density (243.01 K, 1200.7 kPa, Fluid (supercritical or subcritical phases)): 30.1422 ± 0.036 kg/m3
vapor or sublimation pressure (243.01 K, Liquid): 1420.4 ± 3 kPa and 1420.5 ± 3 kPa
mass density (243.01 K, Liquid): 1076.52 ± 0.35 kg/m3
mass density (243.02 K, 100.02 kPa, Fluid (supercritical or subcritical phases)): 2.20055 ± 0.03 kg/m3
mass density (253.21 K, 500.06 kPa, Fluid (supercritical or subcritical phases)): 10.9367 ± 0.031 kg/m3
mass density (253.21 K, 1500.7 kPa, Fluid (supercritical or subcritical phases)): 36.7146 ± 0.037 kg/m3
mass density (253.22 K, 100.07 kPa, Fluid (supercritical or subcritical phases)): 2.116 ± 0.03 kg/m3
mass density (253.22 K, 100.08 kPa, Fluid (supercritical or subcritical phases)): 2.11111 ± 0.03 kg/m3
mass density (253.22 K, 1000.1 kPa, Fluid (supercritical or subcritical phases)): 23.0281 ± 0.033 kg/m3
mass density (253.22 K, 1800.9 kPa, Fluid (supercritical or subcritical phases)): 45.9785 ± 0.04 kg/m3
vapor or sublimation pressure (253.22 K, Liquid): 1974.2 ± 3.9 kPa and 1974.5 ± 3.9 kPa
mass density (253.22 K, Liquid): 1031.59 ± 0.35 kg/m3 and 1031.49 ± 0.35 kg/m3
mass density (263.31 K, 1000.6 kPa, Fluid (supercritical or subcritical phases)): 21.8592 ± 0.032 kg/m3
vapor or sublimation pressure (263.31 K, Liquid): 2661.6 ± 5.1 kPa
mass density (263.31 K, Liquid): 981.93 ± 0.35 kg/m3
mass density (263.32 K, 500.07 kPa, Fluid (supercritical or subcritical phases)): 10.4541 ± 0.03 kg/m3
mass density (263.32 K, 1500.1 kPa, Fluid (supercritical or subcritical phases)): 34.4562 ± 0.035 kg/m3
mass density (263.32 K, 2000.2 kPa, Fluid (supercritical or subcritical phases)): 48.7144 ± 0.039 kg/m3
mass density (263.32 K, 2200.2 kPa, Fluid (supercritical or subcritical phases)): 55.0401 ± 0.042 kg/m3
mass density (263.32 K, 2500 kPa, Fluid (supercritical or subcritical phases)): 65.4007 ± 0.046 kg/m3
vapor or sublimation pressure (263.32 K, Liquid): 2661.9 ± 5.1 kPa
mass density (263.32 K, Liquid): 981.93 ± 0.35 kg/m3
mass density (263.33 K, 100.03 kPa, Fluid (supercritical or subcritical phases)): 2.02538 ± 0.029 kg/m3
vapor or sublimation pressure (273.55 K, Liquid): 3522.1 ± 6.6 kPa
mass density (273.55 K, Liquid): 924.89 ± 0.36 kg/m3
mass density (273.56 K, 100.01 kPa, Fluid (supercritical or subcritical phases)): 1.94808 ± 0.028 kg/m3
mass density (273.56 K, 100.02 kPa, Fluid (supercritical or subcritical phases)): 1.95635 ± 0.028 kg/m3
mass density (273.56 K, 500.01 kPa, Fluid (supercritical or subcritical phases)): 10.0139 ± 0.029 kg/m3
mass density (273.56 K, 1000 kPa, Fluid (supercritical or subcritical phases)): 20.7952 ± 0.032 kg/m3
mass density (273.56 K, 2000.3 kPa, Fluid (supercritical or subcritical phases)): 45.5031 ± 0.035 kg/m3
mass density (273.56 K, 2500.6 kPa, Fluid (supercritical or subcritical phases)): 60.111 ± 0.042 kg/m3
mass density (273.56 K, 3000 kPa, Fluid (supercritical or subcritical phases)): 77.0441 ± 0.049 kg/m3
mass density (273.56 K, 3200.5 kPa, Fluid (supercritical or subcritical phases)): 84.7746 ± 0.053 kg/m3
mass density (273.56 K, 3401.2 kPa, Fluid (supercritical or subcritical phases)): 93.2811 ± 0.055 kg/m3
vapor or sublimation pressure (273.56 K, Liquid): 3522.4 ± 6.6 kPa
mass density (273.56 K, Liquid): 924.87 ± 0.36 kg/m3
mass density (283.51 K, 3000.3 kPa, Fluid (supercritical or subcritical phases)): 70.8325 ± 0.045 kg/m3
mass density (283.51 K, 4000.8 kPa, Fluid (supercritical or subcritical phases)): 107.963 ± 0.071 kg/m3
vapor or sublimation pressure (283.51 K, Liquid): 4543.2 ± 8.4 kPa
mass density (283.51 K, Liquid): 858.57 ± 0.39 kg/m3
mass density (283.52 K, 100.06 kPa, Fluid (supercritical or subcritical phases)): 1.8788 ± 0.028 kg/m3
mass density (283.52 K, 999.98 kPa, Fluid (supercritical or subcritical phases)): 19.8874 ± 0.03 kg/m3
mass density (283.52 K, 2000 kPa, Fluid (supercritical or subcritical phases)): 42.914 ± 0.034 kg/m3
mass density (283.52 K, 4200.9 kPa, Fluid (supercritical or subcritical phases)): 117.472 ± 0.073 kg/m3
vapor or sublimation pressure (283.52 K, Liquid): 4543.6 ± 8.4 kPa
mass density (283.52 K, Liquid): 858.55 ± 0.39 kg/m3
mass density (293.08 K, 100.15 kPa, Fluid (supercritical or subcritical phases)): 1.81243 ± 0.028 kg/m3
mass density (293.08 K, 100.16 kPa, Fluid (supercritical or subcritical phases)): 1.8183 ± 0.028 kg/m3
mass density (293.08 K, 2000 kPa, Fluid (supercritical or subcritical phases)): 40.7832 ± 0.032 kg/m3
mass density (293.08 K, 3000.4 kPa, Fluid (supercritical or subcritical phases)): 66.2045 ± 0.038 kg/m3
mass density (293.08 K, 4000.2 kPa, Fluid (supercritical or subcritical phases)): 97.5691 ± 0.054 kg/m3
mass density (293.08 K, 5000.2 kPa, Fluid (supercritical or subcritical phases)): 140.798 ± 0.08 kg/m3
mass density (293.08 K, 5501.3 kPa, Fluid (supercritical or subcritical phases)): 173.325 ± 0.14 kg/m3
vapor or sublimation pressure (293.08 K, Liquid): 5720.9 ± 10 kPa
mass density (293.08 K, Liquid): 774.28 ± 0.41 kg/m3
mass density (293.09 K, 1000.2 kPa, Fluid (supercritical or subcritical phases)): 19.1053 ± 0.029 kg/m3
vapor or sublimation pressure (293.09 K, Liquid): 5721.4 ± 10 kPa
mass density (293.09 K, Liquid): 774.23 ± 0.41 kg/m3
